≈ marks a conversion by molar mass, not a printed value. Entries after “also recorded” stand apart in the source; their conditions may differ. Read-outs that look alike come from different tables or passages of the source.
How the values were obtained:
[1] = test system: phospho-Tau (Ser199); assay: Tau phosphorylation (Ser199) ELISA in SH-SY5Y cells; assay type: cell-based; settings: Homo sapiens, read-out: p-Tau Inhibition ELISA EC50 SH-SY5Y
Method: SH-SY5Y cells were maintained in DMEM supplemented with 10% heat-inactivated FBS and 1% penicillin-streptomycin (Invitrogen) unless otherwise stated. ELISA kits for phospho-Tau (Ser199) and total Tau detection were purchased from Invitrogen (KHB0041, and KHB7041 respectively). Briefly, SH-SY5Y cells were seeded at 50,000 cells/200 μL/well in 96 well plates and after overnight incubation, treated with various doses of chemical compounds at 0.2 μL/well. The next day cells were washed with PBS twice before being lysed in 100 μL Lysis buffer/well. 50 μL of cell lysate of each sample was transferred to an ELISA vial coated with the capture antibody, and the mixture was incubated at room temperature for 2 hours, before the supernatant was aspired, and each vial washed four times. 100 μL of detection antibody was then added to each well, incubated for 1 hour, and then washed four times. […] Data were scaled using the positive and neutral controls and fitted for IC50.
A standard protocol using an immunoassay kit to quantify total Tau protein and phospho-Tau (Ser199) protein in SH-SY5Y human neuroblastoma cells was employed. Human Tau (Total) ELISA kit (#KHB0041) and human phosphor-Tau (Ser199) ELISA kit were purchased from Invitrogen (#KHB7041)
50,000 cells were seeded in 200 μl per well in cell culture media (250,000 cells/ml). Cells were incubated overnight @ 37° C. Cells were induced with appropriate doses of inhibitors and incubated for approximately 24 hrs @ 37° C. Cell lysates were harvested by washing cells once with cold PBS and adding 100 μl cold lysis buffer and pipette up and down vigorously. Lysate was transferred to 96 well PCR plate and centrifuged at 4,000 rpm for 20 minutes at 4° C.
Well strips were warmed and inserted into the frame. 100μ of standard diluent buffer were loaded into ZERO wells, and 100 ul of each standard concentrations (both total Tau and pTau) were loaded into wells in duplicate. Samples were loaded to each well that would be analyzed for total Tau, 85 μl standard diluent buffer and 15 μl cell lysate were added. To each well that will be analyzed for pTau (Ser199) 50 μl standard diluent buffer+50 μl cell lysate were added. Plates were tapped gently on the side to mix. Certain wells were left empty for chromogen blank. Plates were covered and incubated for 2 hours at room temperature. Wells were aspirated 4 times (400 μl diluted wash buffer, left for 30 seconds, aspirated all wells; alternatively used automated plate washer and programmed in a 30 second hold between each cycle). 100 μl of detection antibody solution were added to each well except chromogen blanks. Anti-total Tau was added to wells being analyzed for total Tau, anti-pTau (Ser199) was added to wells being analyzed for pTau (Ser199), and plates were tapped gently on the side to mix. Plates were covered and incubated for 1 hour at room temperature, then wells were aspirated and washed 4 times as described above. 100 μl of anti-rabbit IgG HRP working solution (prepared ahead) were added to each well except chromogen blanks, and plates were covered and incubated for 30 minutes at room temperature, then wells were aspirated and washed 4 times as described above. 100 μl of stabilized chromogen were added to each well (the liquid turned blue). Plates were incubates for 30 minutes at room temperature in the dark, then 100 μl of stop solution were added to each well, and plates were tapped gently on the side to mix. Absorbance of each well was read at 450 nm (within 2 hours of adding stop solution).

[2] = target: T1, GSK3β (Homo sapiens, UniProt P49841); settings: GSK3β over GSK3α
T1 sequence (P49841 whole entry): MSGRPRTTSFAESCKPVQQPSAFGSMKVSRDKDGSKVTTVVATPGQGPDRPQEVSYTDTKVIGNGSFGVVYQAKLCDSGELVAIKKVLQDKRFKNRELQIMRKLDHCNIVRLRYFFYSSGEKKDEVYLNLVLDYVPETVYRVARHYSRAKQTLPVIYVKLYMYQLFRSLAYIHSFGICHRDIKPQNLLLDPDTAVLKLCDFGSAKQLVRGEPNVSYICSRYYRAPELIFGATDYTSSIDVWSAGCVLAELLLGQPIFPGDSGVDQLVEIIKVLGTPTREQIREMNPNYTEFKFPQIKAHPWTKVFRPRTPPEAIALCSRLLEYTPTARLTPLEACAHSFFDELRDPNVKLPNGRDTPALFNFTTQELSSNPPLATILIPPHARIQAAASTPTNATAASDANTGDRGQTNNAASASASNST
Method: (§2) Reactions were terminated by the addition of 10 mM EDTA. Substrate and product were separated electrophoretically and fluorescence intensity of the substrate and product was determined by Labchip EZ Reader II (Caliper Life Sciences, MA). The kinase activity was measured as percent conversion. The reactions were performed in duplicate for each sample. […] The results were analyzed by Genedata Assay Analyzer. The percent inhibition was plotted against the compound concentration and the IC50 value was determined from the logistic dose-response curve fitting.

[3] = test system: amphetamine-induced hyperactivity; assay: Amphetamine-induced hyperactivity (AIH) in mice; assay type: in vivo, mouse; settings: versus vehicle
[4] = test system: AML cell lines; assay: May-Grunwald Giemsa morphology of AML cell lines; assay type: cell-based; settings: three days after treatment
Method: On day three post-chemical treatment, cytospin preparations were performed. Changes in cellular morphology were evaluated by May-Grunwald Giemsa staining (Sigma Aldrich). Images were acquired by light microscopy at 400× magnification.

[5] = test system: HL-60 and U937 cells; assay: GE-HTS 32-gene myeloid differentiation signature; assay type: cell-based; settings: three days
From the text: This assay uses ligation-mediated amplification with a fluorescent bead-based detection system to quantify the expression of up to 500 genes in a single well. Two primary scoring methods are used to quantify induction of the 32-gene myeloid differentiation signature. The Summed Score combines expression ratios (marker gene/control gene) by summing them with a sign determined by the expected direction of regulation from ATRA-treated positive controls. The Weighted Summed Score combines expression ratios by summing them with a weight and sign determined by the signal-to-noise ratio of each expression ratio for the positive control (ATRA-treated) and negative control (DMSO-treated) samples. To assess the statistical significance of the differences between these differentiation scores a one-way ANOVA with a Bonferroni correction as a post-hoc test was employed.

[6] = Pharmacokinetics and brain distribution in male C57BL/6 mice; settings: single i.p. dose 30 mg/kg (CHIR99021 12.5 mg/kg)
[7] = for Mouse microsomes, % remaining: after 1 hour; for Microsomal stability 60 min: in mice
[8] = test system: panel of 311 kinases
Method: Briefly, a selection of compounds was screened against a panel of kinases at a single concentration of 10 μM. […] This was completed utilizing one of two assays depending on the kinase being examined.
Test compounds were dissolved in and diluted with dimethylsulfoxide (DMSO) to generate a 100× sample solution. These were then diluted to 4× sample solutions in assay buffer to make the final test compound solutions. Reference compounds for assay control were prepared similarly.
A solution of IMAP binding reagent (IMAP Screening Express kit; Molecular Devices) (60 μL) was added to each well and incubated for 30 minutes.
A solution of termination buffer (QuickScout Screening assist MSA; Carna Biosciences) (60 μL) was added to each well. The entire reaction mixture was then applied to a LabChip3000 system (Caliper Life Science) and the product and substrate peptide peaks were separated and quantified.

[9] = test system: human iPSC-NPCs; assay: Neurogenesis assay (TCF/LEF-luciferase in human iPSC-NPCs); assay type: cell-based; settings: 24-h treatment
Method: Human neuroprogenitor cells were generated and derived according to methods known in the art. […] Single-cell suspensions were prepared from the human iPSC-NPCs, stably integrated with the TCF/LEF-luciferase reporter, and dispensed into 96- or 384-well plates at the seeding densities of 20,000 or 6,000 per well, respectively, using a Matrix WellMate (Thermo Scientific) microplate dispenser. A 96-well plate format was used for measuring Wnt3a and lithium (lithium chloride solution, 10 M; Fluka, St. Louis, Mo.) dose-response effects, whereas a 384-well plate format was used for all small-molecule probe treatments and chemical screening. The next day, cells were subjected to various 24-h treatments. Just prior to the luminescence reading, the plates were taken out of a 37° C. incubator and equilibrated to room temperature for 30 min before the SteadyGlo reagent (Promega, Madison, Wis.) was dispensed (volume equal 1:1 SteadyGlo:culture medium). Luminescence was measured after a 10-min incubation using an EnVision multilabel plate reader (PerkinElmer, Waltham, Mass.).

[10] = target: T1, GSK3β; assay: Mechanism of action: ATP competition at GSK3β (Lineweaver-Burk, IC50 at two ATP concentrations); assay type: biochemical; settings: versus ATP
Method: . IC50s were measured against GSK3β at two different ATP concentrations. […]

[11] = test system: β-catenin nuclear translocation; assay: β-Catenin nuclear localization assay in U2-OS cells; assay type: cell-based; settings: Homo sapiens, U2OS, read-out: beta-Catenin translocation EC50
Method: U2-OS cells stably expressing two complimentary β-galactosidase fragments (one part on β-Catenin and the other constitutively expressed in the cell nucleus) were maintained in DMEM F12 supplemented with 10% FBS. When β-catenin translocates to the nucleus, the complimentary fragments form a complete β-galactosidase, the amount of which is then quantified by β-galactosidase activity (DiscoveRx). Cells were seeded in a 384-well CulturPlate (Perkin Elmer, Boston, Mass.) with 10,000 per well in 20 μL DMEM F12 containing 10% FCS, 100 U/ml penicillin and 100 m/mL streptomycin. After overnight incubation at 37° C., cells were stimulated with 100 nL test compound/well and then returned to the incubator for 6 h. Cells were disrupted using 12 μL substrate-containing lysis buffer from the PathHunter Detection Kit in the formulation specified by the supplier (DiscoveRx). Plates were incubated in the dark for 1 h at room temperature before measurement of β-galactosidase activity (luminescence) on an EnVision plate reader (PerkinElmer, Waltham, Mass.). Distance between plate and detector was 0.2 mm. Measurement time(s)=0.1; Glow (CT2) correction factor=0.

[12] = test system: TCF/LEF reporter; assay: cells; settings: Homo sapiens, HEK293, read-out: TCF/LEF EC50, HEK293 cells
Method: HEK293-pBARL cells were derived from HEK293 cells and they stably expressed a firefly-luciferase reporter gene driven by a promoter containing 12 copies of TCF/LEF binding sequences. These cells were maintained in DMEM and supplemented with 10% FBS and 1% penicillin-streptomycin (Invitrogen). Reporter gene assays were conducted in anti-biotic free media. […] These cells also contained a renilla-luciferase reporter gene driven by the ubiquitous EF1α promoter as a control. HEK293-pBarl reporter cell lines were seeded into 384-well culture plates (Corning) at 6000 cells/well. 24 hours after plating, cells were treated overnight with relevant compounds and assayed using DualGlo assay kit (Promega). Luminescent intensities were read by EnVision (PerkinElmer, Waltham, Mass.). Firefly luciferase intensity is normalized by renilla luciferase intensity.
Cells were cultured in 384 well plates to appropriate density (40 μl total plating volume). 24 hours after plating, cells were treated with 100 nl compounds. 24 hours after incubation with compounds (48 hours after plating), assay reagents were prepared by mixing Luciferase Assay solution with Luciferase substrate and Stop & Glo solution to Stop & Glo substrate (extra reagents can be aliquoted and frozen for future use and are stable for at least one freeze/thaw cycle). […] The plate was spun down and 10 minutes were allowed for signal stabilization. Luciferase signal on the Perkin Elmer EnVision using the following parameters: Distance between plate & detector (mm)=0.2; Measurement time(s)=0.1; Glow (CT2) correction factor=0. Once the initial data is secure, a volume of Stop & Glo was added equal to each well equal to the volume of Luciferase reagent added above (If 10 μl Luciferase Reagent was added, 10 μl Stop & Glo was also added). The plate was spun down and 10 minutes were allowed for signal stabilization. The plate was read on the EnVision using the same parameters detailed above.

[13] = target: T1, GSK3β; assay: biochemical
Method: 100 nL/well compounds were pinned. […] Incubated at room temperature for 60 minutes. Added 20 μL/well of ADP-glo (Promega, V9103) with Combi, and incubated at room temperature for 40 minutes. Added 40 μL/well of ADP-glo (Promega, V9103) with Combi, incubated at room temperature for 30 minutes. Read on Envision for luminescence.

[14] = target: T1, GSK3β; assay: biochemical; remark: listed apart in the source
Method: as §2

[15] = target: T2, GSK3α (Homo sapiens, UniProt P49840); assay: biochemical
T2 sequence (P49840 whole entry): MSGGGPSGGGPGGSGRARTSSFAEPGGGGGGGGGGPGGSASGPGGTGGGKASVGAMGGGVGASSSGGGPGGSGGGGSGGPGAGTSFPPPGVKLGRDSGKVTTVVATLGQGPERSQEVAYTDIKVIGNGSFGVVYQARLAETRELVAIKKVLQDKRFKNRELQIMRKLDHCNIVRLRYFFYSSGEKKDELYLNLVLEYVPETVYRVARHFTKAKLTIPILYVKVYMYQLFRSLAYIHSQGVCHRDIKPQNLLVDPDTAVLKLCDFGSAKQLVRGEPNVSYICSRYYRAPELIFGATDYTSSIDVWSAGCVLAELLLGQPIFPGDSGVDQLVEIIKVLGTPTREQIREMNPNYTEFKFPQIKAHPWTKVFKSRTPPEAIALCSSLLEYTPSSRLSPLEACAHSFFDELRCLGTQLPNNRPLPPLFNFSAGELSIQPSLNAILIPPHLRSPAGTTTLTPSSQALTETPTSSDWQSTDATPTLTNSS

[16] = target: T2, GSK3α; settings: for IC50: read-out: Caliper Assay, GSK3α IC50; for GSK3α fold selectivity: GSK3α over GSK3β
[17] = PBS stability; assay type: physicochemical
Method: (§1) Stability was determined in the presence of PBS pH 7.4 with 0.1% DMSO. Each compound was prepared in duplicate on six separate plates and allowed to equilibrate at room temperature with a 250 rpm orbital shake for 48 hours. One plate was removed at each time point (0, 2, 4, 8, 24, and 48 hours). […] Additionally, to the remaining material at each time point, acetonitrile was added to force dissolution of compound (to test for recovery of compound). An aliquot of this was also analyzed by UPLC-MS.

[18] = GSH stability; assay type: physicochemical; settings: after 48 hours
Method: as §1, with “[…] and 50 μM glutathione” for “7.4”

[19] = in mice (mouse plasma), 5 hours
[20] = physchem
Method: Solubility was determined in phosphate buffered saline (PBS) pH 7.4 with 1% DMSO. Each compound was prepared in duplicate at 100 μM in both 100% DMSO and PBS with 1% DMSO. Compounds were allowed to equilibrate at room temperature with a 250 rpm orbital shake for 24 hours.

[21] = in vitro; settings: mouse, plasma, pH 7.4
Method: Plasma protein binding was determined by equilibrium dialysis using the Rapid Equilibrium Dialysis (RED) device (Pierce Biotechnology, Rockford, Ill.) for both human and mouse plasma. […] Compounds were incubated at 37° C. for 5 hours with a 250 rpm orbital shake.

SMILES | EC50 [11] | EC50 [12] | IC50 [13] | IC50 [14] | IC50 [15] | also measured
CC1(C)CC(=O)C2=C(C1)Nc1n[nH]c(C(F)(F)F)c1C2(C)c1ccccc1 (racemic) [Compound 68] |  |  |  |  |  | EC50 [1]: 1580 nM; GSK3β fold selectivity [2]: 2.9 fold
CC1(C)CC(=O)C2=C(C1)Nc1n[nH]c(C(F)(F)F)c1C2(C)c1ccccc1 (racemic) [Compound 70, 4,7,7-trimethyl-4-phenyl-3-(trifluoromethyl)-6,7,8,9-tetrahydro-2H-pyrazolo[3,4-b]quinolin-5(4H)-one] |  |  |  |  |  | Amphetamine-induced hyperactivity, i.p. ([3]; systemic intraperitoneal injection): attenuate amphetamine-induced hyperactivity; Morphological AML differentiation (May-Grunwald Giemsa) [4]: induces morphological evidence of AML (acute myeloid leukemia) differentiation; Morphological AML differentiation (May-Grunwald Giemsa) ([4]; listed as compound 70): demonstrated cellular differentiation; AML differentiation by GE-HTS signature [5]: induces AML (acute myeloid leukemia) differentiation by GE-HTS signature; also recorded: induced a gene expression signature in AML cell lines consistent with myeloid differentiation; GSK3β fold selectivity [2]: 5 fold; Pharmacokinetic profile (systemic exposure, brain distribution) compared to CHIR99021 [6]: improved pharmacokinetic profile
COc1ccccc1C1C2=C(CC(C)(C)CC2=O)Nc2n[nH]c(C(F)(F)F)c21 (racemic) [racemic probe, 4-(2-methoxyphenyl)-7,7-dimethyl-3-(trifluoromethyl)-6,7,8,9-tetrahydro-2H-pyrazolo[3,4-b]quinolin-5(4H)-one] |  |  |  |  |  | Mouse microsomes, % remaining [7]: < 1%
Cc1c[nH]c(-c2cnc(NCCNc3ccc(C#N)cn3)nc2-c2ccc(Cl)cc2Cl)n1 [CHIR99021, reference compound] |  |  |  |  |  | Number of kinases inhibited greater than 50% at 10 μM ([8]; panel of 311 kinases, 10 μM): 21
COc1ccccc1[C@@H]1C2=C(CC(C)(C)CC2=O)Nc2n[nH]c(C)c21 [Compound 22] |  |  |  |  |  | Amphetamine-induced hyperactivity, ICV ([3]; intracerebroventricular injection): attenuate amphetamine-induced hyperactivity; Neurogenesis [9]: promoted neurogenesis; Mode of inhibition of GSK3β [10]: competitive inhibition
Cc1[nH]nc2c1C(C)C1=C(CC(C)(C)CC1=O)N2 (stereo not drawn) [Compound 42] | > 50000 nM | > 25000 nM | 1000 to 5000 nM | 101 to 1000 nM | 101 to 1000 nM | 
Cc1[nH]nc2c1C(C1CC1)C1=C(CC(C)(C)CC1=O)N2 (stereo not drawn) [Compound 43] | > 50000 nM | > 25000 nM | 1000 to 5000 nM | 1000 to 5000 nM | 1000 to 5000 nM | EC50 [1]: > 30000 nM
COc1ccccc1C1C2=C(CCC(C)(C)C2=O)Nc2n[nH]c(C)c21 (stereo not drawn) [Compound 45] | > 50000 nM | > 25000 nM | 101 to 1000 nM | 101 to 1000 nM | 101 to 1000 nM | 
COc1ccccc1C1C2=C(CCCC2=O)Nc2n[nH]c(C)c21 (stereo not drawn) [Compound 46] | > 50000 nM | > 25000 nM | 1000 to 5000 nM | 101 to 1000 nM | 101 to 1000 nM | 
CCc1[nH]nc2c1C(c1ccccc1OC)C1=C(CC(C)(C)CC1=O)N2 (stereo not drawn) [Compound 48] | 24600 nM | 16200 nM | 101 to 1000 nM |  |  | IC50 [16]: < 100 nM
COc1ccccc1C1C2=C(CC(C)(C)CC2=O)Nc2n[nH]c(C(C)C)c21 (stereo not drawn) [Compound 49] | > 50000 nM | > 25000 nM | 101 to 1000 nM |  | 101 to 1000 nM | 
COc1ccccc1C1C2=C(CC(C)(C)CC2=O)Nc2n[nH]c(C(C)(C)C)c21 (stereo not drawn) [Compound 50] | > 50000 nM | > 25000 nM | 101 to 1000 nM | 101 to 1000 nM | 1000 to 5000 nM | 
COc1ccccc1C1C2=C(CC(C)(C)CC2=O)Nc2n[nH]c(-c3ccccc3)c21 (stereo not drawn) [Compound 51] | > 50000 nM | > 25000 nM | 1000 to 5000 nM | 101 to 1000 nM | 101 to 1000 nM | 
CC1(C)CC(=O)C2=C(C1)Nc1n[nH]c(C(F)(F)F)c1C2c1ccccc1 (stereo not drawn) [Compound 52] | 13100 nM | 9320 nM |  |  |  | EC50 [1]: 507 nM; IC50 [16]: < 100 nM
COc1ccccc1[C@@H]1C2=C(CC(C)(C)CC2=O)Nc2n[nH]c(C(F)(F)F)c21 [Compound 54, (R)-4-(2-methoxyphenyl)-7,7-dimethyl-3-(trifluoromethyl)-6,7,8,9-tetrahydro-2H-pyrazolo[3,4-b]quinolin-5(4H)-one] |  |  |  |  |  | recovery at 48 h ([17]; PBS, pH 7.4, after 48 hours of incubation, read-out: PBS stability, % still present (acetonitrile recovery)): > 95%; Concentration in PBS (0.1% DMSO) over time ([17]; over 48 hours, reflects kinetic solubility): about 200%; Glutathione (GSH) stability, % remaining [18]: 99%; Mode of inhibition of GSK3β [10]: ATP-competitive inhibition; Plasma stability % remaining [19]: 99%; Microsomal Stability ([7]; M): M: 0%; Percent of the kinome (311 kinases) inhibited [8]: 2.6%
COc1ccccc1C1C2=C(CC3(CCCCC3)CC2=O)Nc2n[nH]c(C)c21 (stereo not drawn) [Compound 56] | > 50000 nM | > 25000 nM | 101 to 1000 nM | 101 to 1000 nM | 101 to 1000 nM | 
CC1(C)CC(=O)C2=C(C1)Nc1n[nH]c(C(F)(F)F)c1C2c1ccccc1F (stereo not drawn) [Compound 58] |  | > 25000 nM | 101 to 1000 nM |  |  | IC50 [16]: < 100 nM
CC1(C)CC(=O)C2=C(C1)Nc1n[nH]c(C(F)(F)F)c1C2c1cc(F)ccc1OC(F)(F)F (stereo not drawn) [Compound 61] |  | > 25000 nM | 101 to 1000 nM | 101 to 1000 nM | 101 to 1000 nM | 
CC1(C)CC(=O)C2=C(C1)Nc1n[nH]c(C(F)(F)F)c1C2c1ccccc1C(F)(F)F (stereo not drawn) [Compound 62] | 4230 nM | 3930 nM |  |  |  | EC50 [1]: 652 nM
CC1(C)CC(=O)C2=C(C1)Nc1n[nH]c(C(F)(F)F)c1C2c1cccc(F)c1C(F)(F)F (stereo not drawn) [Compound 63] | 3340 nM | 4830 nM |  |  |  | EC50 [1]: 1380 nM; IC50 [16]: < 100 nM
CC1(C)CC(=O)C2=C(C1)Nc1n[nH]c(C(F)(F)F)c1C2c1ccc(F)cc1C(F)(F)F (stereo not drawn) [Compound 65] |  | > 25000 nM | 101 to 1000 nM | 101 to 1000 nM | 101 to 1000 nM | 
Cc1[nH]nc2c1C(C)(c1ccccc1)C1=C(CC(C)(C)CC1=O)N2 (stereo not drawn) [Compound 67] |  |  |  |  |  | GSK3α fold selectivity [16]: 5.2 fold; Mouse microsomes, % remaining [7]: 32%; Microsomal stability 60 min [7]: 32
CC1(C)CC(=O)C2=C(C1)Nc1n[nH]c(C(F)(F)F)c1C2(C)c1ccccc1F (stereo not drawn) [Compound 69] |  | 20800 nM |  | < 100 nM |  | EC50 [1]: 2410 nM; GSK3α fold selectivity [16]: 1.7 fold; IC50 [16]: < 100 nM
CC1(C)CC(=O)C2=C(C1)Nc1n[nH]c(Br)c1C2c1ccccc1 (stereo not drawn) [Compound 74] |  | 6190 nM |  | < 100 nM |  | EC50 [1]: 2090 nM; IC50 [16]: < 100 nM
CC1(C)CC(=O)C2=C(C1)Nc1n[nH]c(C(F)(F)F)c1C2c1cccnc1 (stereo not drawn) [Compound 76] |  | 6190 nM |  | < 100 nM | 101 to 1000 nM | EC50 [1]: 2090 nM
Cc1[nH]nc2c1C(c1ccccc1)(C(F)(F)F)C1=C(CC(C)(C)CC1=O)N2 (stereo not drawn) [Compound 83] |  |  |  |  |  | IC50 [16]: < 100 nM; Microsomal stability 60 min [7]: 51.5; solubility [20]: 410 µM (≈ 154 µg/mL); fraction unbound at 5 h, 5 μM [21]: 0.102
Cc1[nH]nc2c1C(C1CCCCC1)C1=C(CC(C)(C)CC1=O)N2 (stereo not drawn) [compound 44] | > 50000 nM | > 25000 nM |  |  |  | 

— patent US20160375006A1, “USES OF PARALOG-SELECTIVE INHIBITORS OF GSK3 KINASES” (priority 2012, published 2016)
